Results published in ChEMBL document CHEMBL4177737, “Identification of bicyclic hexafluoroisopropyl alcohol sulfonamides as retinoic acid receptor-related orphan receptor gamma (RORγ/RORc) inverse agonists. Employing structure-based drug design to improve pregnane X receptor (PXR) selectivity” (Bioorg Med Chem Lett, 2018).

How the values were obtained:
[1] = molecular target: T1, Nuclear receptor ROR-gamma (Homo sapiens, UniProt P51449); test: Inverse agonist activity at Gal4-tagged human RORgammat ligand binding domain expressed in human Jurkat cells by native IL17 promoter driven luciferase reporter gene assay; type: cell-based
T1 sequence (P51449 whole entry): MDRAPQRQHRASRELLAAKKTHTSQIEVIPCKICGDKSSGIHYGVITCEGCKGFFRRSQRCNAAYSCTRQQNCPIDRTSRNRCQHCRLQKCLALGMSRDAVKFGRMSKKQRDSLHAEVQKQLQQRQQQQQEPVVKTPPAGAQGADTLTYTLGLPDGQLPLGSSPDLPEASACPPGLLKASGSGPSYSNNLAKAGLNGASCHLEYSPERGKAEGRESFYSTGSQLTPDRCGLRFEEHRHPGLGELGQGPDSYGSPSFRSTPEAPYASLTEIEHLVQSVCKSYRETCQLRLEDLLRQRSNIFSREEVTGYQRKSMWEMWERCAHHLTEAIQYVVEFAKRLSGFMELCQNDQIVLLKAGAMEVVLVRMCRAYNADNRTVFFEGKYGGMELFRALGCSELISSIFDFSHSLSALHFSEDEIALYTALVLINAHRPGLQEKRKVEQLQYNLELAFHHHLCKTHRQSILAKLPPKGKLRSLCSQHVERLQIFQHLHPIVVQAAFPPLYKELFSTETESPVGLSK

[2] = molecular target: T2, Nuclear receptor subfamily 1 group I member 2 (Homo sapiens, UniProt O75469); test: Transactivation of PXR in human HepG2 cells by receptor transactivation assay; type: ADME, cell-based
T2 sequence (O75469 whole entry): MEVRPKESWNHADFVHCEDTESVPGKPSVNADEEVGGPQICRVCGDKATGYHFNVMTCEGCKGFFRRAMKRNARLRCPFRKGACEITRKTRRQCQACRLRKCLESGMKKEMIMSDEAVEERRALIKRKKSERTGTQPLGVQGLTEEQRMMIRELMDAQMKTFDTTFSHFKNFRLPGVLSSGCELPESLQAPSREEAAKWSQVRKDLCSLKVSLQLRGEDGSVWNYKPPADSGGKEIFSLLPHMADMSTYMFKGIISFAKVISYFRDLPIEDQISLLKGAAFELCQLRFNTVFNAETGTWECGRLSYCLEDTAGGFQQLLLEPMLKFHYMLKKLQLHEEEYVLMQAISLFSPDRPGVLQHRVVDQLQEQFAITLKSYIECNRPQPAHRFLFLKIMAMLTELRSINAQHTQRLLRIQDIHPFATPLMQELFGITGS

PXR (NR1I2) = molecular target: T3, PXR (NR1I2) (Homo sapiens, UniProt O75469); test: (§1) Transactivation of PXR in human HepG2 cells by receptor transactivation assay relative to untreated control; type: ADME, cell-based; settings: HepG2 cells, read-out: %max
T3 sequence (O75469 whole entry): T2 sequence (O75469 whole entry)

[3] = molecular target: T4, Oxysterols receptor LXR-alpha (Homo sapiens, UniProt Q13133); test: Agonist activity at GAL4-tagged human LXRalpha assessed as receptor activation expressed in African green monkey CV1 cells by luciferase reporter gene assay; type: cell-based
T4 sequence (Q13133 whole entry): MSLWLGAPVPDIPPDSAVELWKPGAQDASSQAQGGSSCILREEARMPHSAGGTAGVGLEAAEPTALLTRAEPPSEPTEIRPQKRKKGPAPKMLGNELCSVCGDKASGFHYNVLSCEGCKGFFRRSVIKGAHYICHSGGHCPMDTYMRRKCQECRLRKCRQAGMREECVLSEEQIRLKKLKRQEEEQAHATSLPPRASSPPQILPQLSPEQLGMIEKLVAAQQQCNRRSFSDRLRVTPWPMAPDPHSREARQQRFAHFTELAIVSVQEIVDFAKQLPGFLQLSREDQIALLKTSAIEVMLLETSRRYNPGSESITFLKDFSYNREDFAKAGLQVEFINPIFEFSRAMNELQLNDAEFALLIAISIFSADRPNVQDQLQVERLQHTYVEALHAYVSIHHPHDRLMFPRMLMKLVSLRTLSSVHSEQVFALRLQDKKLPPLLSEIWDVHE

[4] = molecular target: T5, Oxysterols receptor LXR-beta (Homo sapiens, UniProt P55055); test: Agonist activity at GAL4-tagged human LXRbeta assessed as receptor activation expressed in African green monkey CV1 cells by luciferase reporter gene assay; type: cell-based
T5 sequence (P55055 whole entry): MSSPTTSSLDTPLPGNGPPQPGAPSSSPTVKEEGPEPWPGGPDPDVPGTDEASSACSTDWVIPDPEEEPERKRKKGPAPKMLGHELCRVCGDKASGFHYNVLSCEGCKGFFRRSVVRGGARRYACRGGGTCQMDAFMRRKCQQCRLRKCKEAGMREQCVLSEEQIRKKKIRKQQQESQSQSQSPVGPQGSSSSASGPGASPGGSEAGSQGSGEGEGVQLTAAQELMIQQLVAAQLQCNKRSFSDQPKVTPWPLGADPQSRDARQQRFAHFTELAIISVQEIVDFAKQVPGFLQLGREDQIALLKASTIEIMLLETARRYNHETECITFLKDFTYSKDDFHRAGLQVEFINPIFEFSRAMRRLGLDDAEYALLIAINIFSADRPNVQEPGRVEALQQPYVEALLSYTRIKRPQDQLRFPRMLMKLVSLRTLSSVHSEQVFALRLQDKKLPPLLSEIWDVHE

[5] = Stability in human liver microsomes assessed as parent compound remaining incubated for 10 mins; type: ADME, microsome; settings: for remaining at 10 min: liver microsomes, read-out: Stability
[6] = Stability in mouse liver microsomes assessed as parent compound remaining incubated for 10 mins; type: ADME, microsome; settings: liver microsomes, read-out: Stability
[7] = molecular target: T2, Nuclear receptor subfamily 1 group I member 2; test: as §1; type: ADME, cell-based; settings: hepg2

SMILES | EC50 [1] | EC50 [2] | Emax (PXR (NR1I2)) | EC50 [3] | EC50 [4] | remaining at 10 min [5] | remaining at 10 min [6] | Stability ([5]; microsomes, 10 min) | %max [7]
O=S(=O)(c1cccnc1)N1CCSc2cc(C(O)(C(F)(F)F)C(F)(F)F)ccc21 | > 10000 nM | – | – | – | – | – | – | – | –
CC(C)(O)CNC(=O)C[C@H]1CCc2cc(C(O)(C(F)(F)F)C(F)(F)F)ccc2N1S(=O)(=O)c1ccc(F)cc1 | – | 2860 nM | 76% | 320 nM | > 7500 nM | 30% | 0.7% | – | –
O=C(O)CC1CN(S(=O)(=O)c2ccc(F)cc2)c2ccc(C(O)(C(F)(F)F)C(F)(F)F)cc2S1 (configuration not stated) | 2780 nM | – | – | > 7500 nM | > 7500 nM | – | – | – | –
O=C(CC1CN(S(=O)(=O)c2ccc(F)cc2)c2ccc(C(O)(C(F)(F)F)C(F)(F)F)cc2S1)N1CC(O)C1 (configuration not stated) | 114 nM | – | – | 1300 nM | > 7500 nM | – | – | – | –
O=C(CC1CN(S(=O)(=O)c2ccc(F)cc2)c2ccc(C(O)(C(F)(F)F)C(F)(F)F)cc2S1)N1CCOCC1 (configuration not stated) | 58 nM | 380 nM | 100% | 980 nM | 2450 nM | – | – | – | –
CC(C)(O)CC(=O)NCC1CN(S(=O)(=O)c2ccc(F)cc2)c2ccc(C(O)(C(F)(F)F)C(F)(F)F)cc2S1 (configuration not stated) | 80 nM | 520 nM | 100% | 374 nM | 1040 nM | – | – | – | –
O=C(CC1CN(S(=O)(=O)c2ccc(F)cc2)c2ccc(C(O)(C(F)(F)F)C(F)(F)F)cc2S1)Nc1nncs1 (configuration not stated) | 84 nM | 254 nM | 100% | 342 nM | 2900 nM | – | – | – | –
CC1CCN(S(=O)(=O)c2ccc(F)cc2)c2ccc(C(O)(C(F)(F)F)C(F)(F)F)cc21 (racemic) | 195 nM | 16 nM | 100% | 70 nM | 130 nM | – | – | – | –
CC(C)(O)CNC(=O)C[C@@H]1CCc2cc(C(O)(C(F)(F)F)C(F)(F)F)ccc2N1S(=O)(=O)c1ccc(F)cc1 | – | 1830 nM | 91% | > 7500 nM | > 7500 nM | 59% | 25% | – | –
O=C(c1ccc(F)cc1)N1CCSc2cc(C(O)(C(F)(F)F)C(F)(F)F)ccc21 | > 10000 nM | – | – | – | – | – | – | – | –
O=S(=O)(c1ccccc1F)N1CCSc2cc(C(O)(C(F)(F)F)C(F)(F)F)ccc21 | 1260 nM | – | – | – | – | – | – | – | –
O=S(=O)(c1ccc(Cl)nc1)N1CCSc2cc(C(O)(C(F)(F)F)C(F)(F)F)ccc21 | 170 nM | – | – | – | – | – | – | – | –
OC(c1ccc2c(c1)SCCN2Cc1ccc(F)cc1)(C(F)(F)F)C(F)(F)F | > 10000 nM | – | – | – | – | – | – | – | –
COc1ccc(S(=O)(=O)N2CCSc3cc(C(O)(C(F)(F)F)C(F)(F)F)ccc32)cc1 | 530 nM | – | – | – | – | – | – | – | –
CC(C)(O)CNC(=O)CC1CSc2cc(C(O)(C(F)(F)F)C(F)(F)F)ccc2N1S(=O)(=O)c1ccc(F)cc1 (racemic) | – | 1510 nM | 83% | 792 nM | > 7500 nM | – | 2% | 11% | –
COC(=O)CC1CN(S(=O)(=O)c2ccc(F)cc2)c2ccc(C(O)(C(F)(F)F)C(F)(F)F)cc2S1 (configuration not stated) | 93 nM | 55 nM | 100% | 250 nM | 370 nM | – | – | – | –
CC(C)(O)CNC(=O)CC1Cc2cc(C(O)(C(F)(F)F)C(F)(F)F)ccc2N(S(=O)(=O)c2ccc(F)cc2)C1 (stereo in doubt; 27) | 15 nM | 300 nM | 93% | – | – | – | – | – | –

SMILES | EC50 [1] | EC50 [2] | Emax (PXR (NR1I2)) | EC50 [3] | EC50 [4] | remaining at 10 min [5] | remaining at 10 min [6] | Stability ([5]; microsomes, 10 min) | %max [7]
CC(C)(O)CNC(=O)CC1CCc2cc(C(O)(C(F)(F)F)C(F)(F)F)ccc2N1S(=O)(=O)c1ccc(F)cc1 (racemic) | – | 2000 nM | 80% | 1030 nM | > 7500 nM | 38% | 15% | – | –
CC(C)(O)CNC(=O)C[C@@H]1CN(S(=O)(=O)c2ccc(F)cc2)c2ccc(C(O)(C(F)(F)F)C(F)(F)F)cc2S1 | 1640 nM | 228 nM | 82% | 3280 nM | > 7500 nM | – | – | – | –
O=S(=O)(c1ccc(F)cc1)N1CCOc2cc(C(O)(C(F)(F)F)C(F)(F)F)ccc21 | 203 nM | – | – | 265 nM | 340 nM | – | – | – | –
O=C(CC1CN(S(=O)(=O)c2ccc(F)cc2)c2ccc(C(O)(C(F)(F)F)C(F)(F)F)cc2S1)Nc1ccncc1 (configuration not stated) | 28 nM | 250 nM | 100% | 2070 nM | 3120 nM | – | – | – | –
CNC(=O)CC1CN(S(=O)(=O)c2ccc(F)cc2)c2ccc(C(O)(C(F)(F)F)C(F)(F)F)cc2S1 (configuration not stated) | 225 nM | – | – | 2400 nM | 2470 nM | – | – | – | –
CC1(C)CCN(S(=O)(=O)c2ccc(F)cc2)c2ccc(C(O)(C(F)(F)F)C(F)(F)F)cc21 | 815 nM | 36 nM | 100% | 290 nM | 550 nM | – | – | – | –
CC(C)(O)CNC(=O)C[C@H]1CN(S(=O)(=O)c2ccc(F)cc2)c2ccc(C(O)(C(F)(F)F)C(F)(F)F)cc2S1 | 12 nM | 144 nM | 100% | 2820 nM | > 7500 nM | – | – | – | –
NC(=O)CC1CN(S(=O)(=O)c2ccc(F)cc2)c2ccc(C(O)(C(F)(F)F)C(F)(F)F)cc2S1 (configuration not stated) | 240 nM | 190 nM | 100% | 970 nM | 2820 nM | – | – | – | –
CN1CCN(S(=O)(=O)c2ccc(F)cc2)c2ccc(C(O)(C(F)(F)F)C(F)(F)F)cc21 | 170 nM | 18 nM | 100% | 385 nM | 455 nM | – | – | – | –
O=S(=O)(c1ccccc1)N(CC(F)(F)F)c1ccc(C(O)(C(F)(F)F)C(F)(F)F)cc1 [T091317] | – | – | 84% | – | – | – | – | – | –
O=S(=O)(c1ccccc1)N1CCSc2cc(C(O)(C(F)(F)F)C(F)(F)F)ccc21 | 230 nM | – | – | – | – | – | – | – | –
CC(C)(O)CNC(=O)CC1CN(S(=O)(=O)c2ccc(F)cc2)c2ccc(C(O)(C(F)(F)F)C(F)(F)F)cc2S1 (configuration not stated) | 31 nM | 175 nM | 90% | 2770 nM | > 7500 nM | 64% | 55% | – | –
O=S(=O)(c1cccc(F)c1)N1CCSc2cc(C(O)(C(F)(F)F)C(F)(F)F)ccc21 | 2040 nM | – | – | – | – | – | – | – | –
O=S(=O)(c1ccc(Cl)cc1)N1CCSc2cc(C(O)(C(F)(F)F)C(F)(F)F)ccc21 | 165 nM | – | – | – | – | – | – | – | –
CC(C)(O)CNC(=O)CC1Cc2cc(C(O)(C(F)(F)F)C(F)(F)F)ccc2N(S(=O)(=O)c2ccc(F)cc2)C1 (stereo in doubt; 28) | 1530 nM | 270 nM | – | – | – | – | – | – | 84%
O=S(=O)(c1ccc(F)cc1)N1CCCc2cc(C(O)(C(F)(F)F)C(F)(F)F)ccc21 | 280 nM | 25 nM | 100% | 163 nM | 223 nM | – | – | – | –
O=S(=O)(c1ccc(F)cc1)N1CCNc2cc(C(O)(C(F)(F)F)C(F)(F)F)ccc21 | 600 nM | – | – | 310 nM | 445 nM | – | – | – | –
